Measured values: PubChem BioAssay AID256 (DTP/NCI, 2004)
“And” between values parts separate entries of the source, which are not always exact repeats. Equal values may be shown once. Toxic doses and inconclusive results are not listed.

Test system: CD2F1 mice, L1210 leukemia ip, survival T/C
Assay: NCI In Vivo Anticancer Drug Screen. Data for tumor model L1210 Leukemia (intraperitoneal) in CD2F1 (CDF1) mice
Details: higher = longer survival
Summary of the method: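 Antitumor effect is scored in animals hosting a serially transplanted tumor. Values compare compound-dosed animals against vehicle-only controls as a simple quotient.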

[1] = endpoint: mean survival time, dose: 100.0 mg/kg/injection, schedule: Q01DX001 (ip), vehicle: saline with Tween-80
[2] = endpoint: mean survival time, dose: 200.0 mg/kg/injection, schedule: Q01DX001 (ip), vehicle: saline with Tween-80
[3] = endpoint: mean survival time, dose: 400.0 mg/kg/injection, schedule: Q01DX001 (ip), vehicle: saline with Tween-80
[4] = endpoint: mean survival time, dose: 50.0 mg/kg/injection, schedule: Q01DX009 (ip), vehicle: saline with Tween-80
[5] = endpoint: mean survival time, dose: 100.0 mg/kg/injection, schedule: Q04DX003 (ip), vehicle: saline with Tween-80
[6] = endpoint: mean survival time, dose: 200.0 mg/kg/injection, schedule: Q04DX003 (ip), vehicle: saline with Tween-80
[7] = endpoint: mean survival time, dose: 25.0 mg/kg/injection, schedule: Q01DX009 (ip), vehicle: saline with Tween-80
[8] = endpoint: mean survival time, dose: 100.0 mg/kg/injection, schedule: Q01DX009 (ip), vehicle: other
[9] = endpoint: mean survival time, dose: 200.0 mg/kg/injection, schedule: Q01DX009 (ip), vehicle: other
[10] = endpoint: mean survival time, dose: 400.0 mg/kg/injection, schedule: Q01DX009 (ip), vehicle: other
[11] = endpoint: mean survival time, dose: 100.0 mg/kg/injection, schedule: Q04DX002 (ip), vehicle: saline with Tween-80
[12] = endpoint: mean survival time, dose: 200.0 mg/kg/injection, schedule: Q04DX002 (ip), vehicle: saline with Tween-80

O=C(O)c1[nH]c(=O)[nH]c(=O)c1F.[Ga]
T/C (endpoint: mean survival time, dose: 54.0 mg/kg/injection, schedule: Q01DX001 (ip), vehicle: saline with Tween-80): 123 % of control
T/C (endpoint: mean survival time, dose: 177.0 mg/kg/injection, schedule: Q01DX001 (ip), vehicle: saline with Tween-80): 159 % of control

COC1OC(Nc2nc(SC)[nH]c(=O)c2C(C)=O)C(O)C(O)C1O (configuration not stated)
T/C (endpoint: median survival time, dose: 12.5 mg/kg/injection, schedule: Q01DX005 (ip), vehicle: saline with Tween-80): 98 % of control
T/C (endpoint: median survival time, dose: 25.0 mg/kg/injection, schedule: Q01DX005 (ip), vehicle: saline with Tween-80): 97 % of control
T/C (endpoint: median survival time, dose: 50.0 mg/kg/injection, schedule: Q01DX005 (ip), vehicle: saline with Tween-80): 94 % of control
T/C (endpoint: median survival time, dose: 100.0 mg/kg/injection, schedule: Q01DX005 (ip), vehicle: saline with Tween-80): 95 % of control
T/C (endpoint: median survival time, dose: 200.0 mg/kg/injection, schedule: Q01DX005 (ip), vehicle: saline with Tween-80): 97 % of control

O=c1cc(NCCCc2ccccc2)[nH]c(=O)[nH]1
T/C [1]: 100 % of control
T/C [2]: 92 % of control
T/C [3]: 93 % of control

C/C(=C/C#N)c1ccccc1
T/C [4]: 101 % of control
T/C (endpoint: mean survival time, dose: 100.0 mg/kg/injection, schedule: Q01DX009 (ip), vehicle: saline with Tween-80): 97 % of control
T/C [5]: 100 % of control
T/C [6]: 100 % of control

COc1cccc(NC2=NCCO2)c1
T/C [5]: 96 % of control
T/C [6]: 98 % of control

C[Si](C)(C)OC1(C#N)C=CC(=O)C=C1
T/C (endpoint: mean survival time, dose: 1.56 mg/kg/injection, schedule: Q01DX001 (ip), vehicle: saline with Tween-80): 103 % of control
T/C (endpoint: mean survival time, dose: 3.13 mg/kg/injection, schedule: Q01DX001 (ip), vehicle: saline with Tween-80): 100 % of control
T/C (endpoint: mean survival time, dose: 6.25 mg/kg/injection, schedule: Q01DX001 (ip), vehicle: saline with Tween-80): 92 % of control and 95 % of control

CC(C)(CN=Cc1ccccc1[O-])N=Cc1ccccc1[O-].[O]=[V]
T/C (endpoint: mean survival time, dose: 12.5 mg/kg/injection, schedule: Q01DX009 (ip), vehicle: saline with Tween-80): 89 % of control
T/C [7]: 96 % of control
T/C [4]: 91 % of control
T/C [5]: 100 % of control
T/C [6]: 88 % of control

CN=C(N)N/N=C(\c1ccccc1)c1ccc(Br)cc1
T/C (endpoint: median survival time, dose: 3.12 mg/kg/injection, schedule: Q01DX009 (ip), vehicle: saline): 100 % of control
T/C (endpoint: median survival time, dose: 6.25 mg/kg/injection, schedule: Q01DX009 (ip), vehicle: saline): 106 % of control
T/C (endpoint: median survival time, dose: 12.5 mg/kg/injection, schedule: Q01DX009 (ip), vehicle: saline): 107 % of control
T/C (endpoint: median survival time, dose: 25.0 mg/kg/injection, schedule: Q01DX009 (ip), vehicle: saline): 121 % of control

CCCC(=O)OC1C2OP(=O)(O)OCC2OC1n1c(=S)[nH]c2c(N)ncnc21 (configuration not stated)
T/C (endpoint: mean survival time, dose: 6.25 mg/kg/injection, schedule: Q01DX005 (ip), vehicle: water): 93 % of control
T/C (endpoint: mean survival time, dose: 12.5 mg/kg/injection, schedule: Q01DX005 (ip), vehicle: water): 97 % of control
T/C (endpoint: mean survival time, dose: 25.0 mg/kg/injection, schedule: Q01DX005 (ip), vehicle: water): 101 % of control
T/C (endpoint: mean survival time, dose: 50.0 mg/kg/injection, schedule: Q01DX005 (ip), vehicle: water): 93 % of control
T/C (endpoint: mean survival time, dose: 100.0 mg/kg/injection, schedule: Q01DX005 (ip), vehicle: water): 101 % of control

CNc1ccccc1CO
T/C [8]: 107 % of control
T/C [9]: 97 % of control
T/C [10]: 103 % of control

OCCCCCCl
T/C (endpoint: mean survival time, dose: 100.0 mg/kg/injection, schedule: Q01DX001 (ip), vehicle: saline): 104 % of control
T/C (endpoint: mean survival time, dose: 200.0 mg/kg/injection, schedule: Q01DX001 (ip), vehicle: saline): 98 % of control
T/C (endpoint: mean survival time, dose: 400.0 mg/kg/injection, schedule: Q01DX001 (ip), vehicle: saline): 101 % of control

Cc1nc(N)nc2c1CCC(=O)N2C
T/C (endpoint: mean survival time, dose: 50.0 mg/kg/injection, schedule: Q04DX002 (ip), vehicle: saline with Tween-80): 97 % of control
T/C (endpoint: mean survival time, dose: 100.0 mg/kg/injection, schedule: Q01DX001 (ip), vehicle: Klucel (hydroxypropylcellulose) (HPC)): 102 % of control
T/C [11]: 97 % of control
T/C (endpoint: mean survival time, dose: 200.0 mg/kg/injection, schedule: Q01DX001 (ip), vehicle: Klucel (hydroxypropylcellulose) (HPC)): 90 % of control
T/C [12]: 97 % of control

CC1=C(N2CC2)C(=O)c2c(COC(N)=O)c3n(c2C1=O)C[C@H]1N[C@@H]31
T/C (endpoint: mean survival time, dose: 3.0 mg/kg/injection, schedule: Q01DX001 (ip), vehicle: distilled water + Tween-80): 106 % of control
T/C (endpoint: mean survival time, dose: 6.0 mg/kg/injection, schedule: Q01DX001 (ip), vehicle: distilled water + Tween-80): 118 % of control
T/C (endpoint: mean survival time, dose: 12.0 mg/kg/injection, schedule: Q01DX001 (ip), vehicle: distilled water + Tween-80): 122 % of control
T/C (endpoint: mean survival time, dose: 24.0 mg/kg/injection, schedule: Q01DX001 (ip), vehicle: distilled water + Tween-80): 120 % of control

O=C1C=CC(=Nc2ccc(O)cc2)O1
T/C (endpoint: mean survival time, dose: 5.0 mg/kg/injection, schedule: Q01DX009 (ip), vehicle: saline with Tween-80): 100 % of control
T/C (endpoint: mean survival time, dose: 10.0 mg/kg/injection, schedule: Q01DX009 (ip), vehicle: saline with Tween-80): 94 % of control
T/C (endpoint: mean survival time, dose: 20.0 mg/kg/injection, schedule: Q01DX009 (ip), vehicle: saline with Tween-80): 104 % of control

O=C(CC(O)(C(F)(F)F)C(F)(F)F)c1ccc([N+](=O)[O-])cc1
T/C [8]: 97 % of control
T/C [9]: 97 % of control
T/C [10]: 101 % of control

O=c1cc([O-])[n+](C2OC(CO)C(O)C2O)c2sccn12 (configuration not stated)
T/C (endpoint: median survival time, dose: 10.63 mg/kg/injection, schedule: Q01DX005 (ip), vehicle: water): 102 % of control
T/C (endpoint: median survival time, dose: 12.5 mg/kg/injection, schedule: Q01DX005 (ip), vehicle: saline): 102 % of control
T/C (endpoint: median survival time, dose: 21.25 mg/kg/injection, schedule: Q01DX005 (ip), vehicle: water): 98 % of control
T/C (endpoint: median survival time, dose: 25.0 mg/kg/injection, schedule: Q01DX005 (ip), vehicle: saline): 101 % of control
T/C (endpoint: median survival time, dose: 42.5 mg/kg/injection, schedule: Q01DX005 (ip), vehicle: water): 98 % of control
T/C (endpoint: median survival time, dose: 50.0 mg/kg/injection, schedule: Q01DX005 (ip), vehicle: saline): 98 % of control
T/C (endpoint: median survival time, dose: 85.0 mg/kg/injection, schedule: Q01DX005 (ip), vehicle: water): 102 % of control
T/C (endpoint: median survival time, dose: 100.0 mg/kg/injection, schedule: Q01DX005 (ip), vehicle: saline): 97 % of control
T/C (endpoint: median survival time, dose: 170.0 mg/kg/injection, schedule: Q01DX005 (ip), vehicle: water): 100 % of control
T/C (endpoint: median survival time, dose: 200.0 mg/kg/injection, schedule: Q01DX005 (ip), vehicle: saline): 98 % of control

CC(C)(C)N
T/C [1]: 100 % of control
T/C [2]: 97 % of control
T/C [3]: 97 % of control

O=C(O)c1cc([N+](=O)[O-])cc([N+](=O)[O-])c1 (tested in a mixture with another compound)
T/C [11]: 105 % of control and 114 % of control
T/C [12]: 101 % of control and 105 % of control
T/C (endpoint: mean survival time, dose: 400.0 mg/kg/injection, schedule: Q04DX002 (ip), vehicle: saline with Tween-80): 94 % of control

COC(=O)c1cc2c3ccccc3ncc2c2ccccc12
T/C (endpoint: mean survival time, dose: 25.0 mg/kg/injection, schedule: Q04DX003 (ip), vehicle: saline with Tween-80): 89 % of control
T/C (endpoint: mean survival time, dose: 50.0 mg/kg/injection, schedule: Q04DX003 (ip), vehicle: saline with Tween-80): 89 % of control
T/C [5]: 87 % of control
T/C [6]: 89 % of control
T/C (endpoint: mean survival time, dose: 400.0 mg/kg/injection, schedule: Q04DX003 (ip), vehicle: saline with Tween-80): 89 % of control

NNC(=S)Nc1ccccc1
T/C (endpoint: mean survival time, dose: 20.0 mg/kg/injection, schedule: Q04DX003 (ip), vehicle: saline with Tween-80): 98 % of control

ClC1=C(Cl)C2(Cl)C=CC1(Cl)C2(Cl)Cl
T/C [7]: 97 % of control
T/C [4]: 90 % of control
T/C [5]: 105 % of control

CCN(CC)CCCC(C)Nc1ncnc(N)c1[N+](=O)[O-] (configuration not stated)
T/C (endpoint: mean survival time, dose: 25.0 mg/kg/injection, schedule: Q01DX009 (ip), vehicle: saline): 103 % of control
T/C (endpoint: mean survival time, dose: 25.0 mg/kg/injection, schedule: Q04DX003 (ip), vehicle: saline): 106 % of control
T/C (endpoint: mean survival time, dose: 50.0 mg/kg/injection, schedule: Q01DX009 (ip), vehicle: saline): 92 % of control
T/C (endpoint: mean survival time, dose: 50.0 mg/kg/injection, schedule: Q04DX003 (ip), vehicle: saline): 111 % of control
T/C (endpoint: mean survival time, dose: 100.0 mg/kg/injection, schedule: Q01DX009 (ip), vehicle: saline): 95 % of control
T/C (endpoint: mean survival time, dose: 100.0 mg/kg/injection, schedule: Q04DX003 (ip), vehicle: saline): 104 % of control

O=S(=O)(/C=C/S(=O)(=O)c1ccccc1)c1ccccc1
T/C (endpoint: mean survival time, dose: 62.5 mg/kg/injection, schedule: Q01DX009 (ip), vehicle: Klucel (hydroxypropylcellulose) (HPC)): 97 % of control
T/C (endpoint: mean survival time, dose: 125.0 mg/kg/injection, schedule: Q01DX009 (ip), vehicle: Klucel (hydroxypropylcellulose) (HPC)): 98 % of control
